Measurements published in PubChem BioAssay AID1918953 (Molecular Pharmacology Branch, DTP, NCI, 2023).
pIC50: −log10 of the molar value.

Tested on: MDA-MB-231 complex spheroid viability
Test: Anticancer human tumor MDA-MB-231/ATCC cell line growth inhibition;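 also: drug exposure lasted 7 days starting on day 3 of spheroid growth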
Conditions: for pIC50: curve of first compound; for viability, T/C: stronger effect = lower value
How it was run: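 Drug combinations with the LSD1 inhibitor iadademstat tested on tumor cells co-cultured as spheroids with endothelial cells and mesenchymal stem cells. Concentrations descended in half-log increments from clinical Cmax or 10 microM.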

Work on `CC1(C)CCC(CN2CCN(c3ccc(C(=O)NS(=O)(=O)c4ccc(NCC5CCOCC5)c([N+](=O)[O-])c4)c(Oc4cnc5[nH]ccc5c4)c3)CC2)=C(c2ccc(Cl)cc2)C1` + NC1CC1c1ccc(-c2cccc(O)c2)cc1 yielded a pIC50 (second compound 0.1 µM) of 5.35, a pIC50 (second compound 0.316 µM) of 5.37 and a pIC50 (second compound 1 µM) of 5.35. For the same compound, the pIC50 (second compound 3.16 µM) was 5.37, the pIC50 (second compound 10 µM) was over 7.50 and the viability, T/C (second compound 0.1 µM, first compound 0.0316 µM) was 90.9%. The viability, T/C (second compound 0.1 µM, first compound 0.1 µM) was 93%, the viability, T/C (second compound 0.1 µM, first compound 0.316 µM) was 94.5% and the viability, T/C (second compound 0.1 µM, first compound 1 µM) was 112%. The viability, T/C (second compound 0.1 µM, first compound 3.16 µM) was 71.2%, the viability, T/C (second compound 0.1 µM, first compound 10 µM) was 1.41% and the viability, T/C (second compound 0.316 µM, first compound 0.0316 µM) was 74.1%. It also gave a viability, T/C (second compound 0.316 µM, first compound 0.1 µM) of 78.6%, a viability, T/C (second compound 0.316 µM, first compound 0.316 µM) of 82.1% and a viability, T/C (second compound 0.316 µM, first compound 1 µM) of 77.9%. It also gave a viability, T/C (second compound 0.316 µM, first compound 3.16 µM) of 67.6%, a viability, T/C (second compound 0.316 µM, first compound 10 µM) of 1.16% and a viability, T/C (second compound 1 µM, first compound 0.0316 µM) of 75.2%. It also gave a viability, T/C (second compound 1 µM, first compound 0.1 µM) of 70%, a viability, T/C (second compound 1 µM, first compound 0.316 µM) of 76.7% and a viability, T/C (second compound 1 µM, first compound 1 µM) of 80.5%. The viability, T/C (second compound 1 µM, first compound 3.16 µM) was 70%, the viability, T/C (second compound 1 µM, first compound 10 µM) was 1.72% and the viability, T/C (second compound 3.16 µM, first compound 0.0316 µM) was 68.2%. It also gave a viability, T/C (second compound 3.16 µM, first compound 0.1 µM) of 70.2%, a viability, T/C (second compound 3.16 µM, first compound 0.316 µM) of 78.8% and a viability, T/C (second compound 3.16 µM, first compound 1 µM) of 79.4%. The viability, T/C (second compound 3.16 µM, first compound 3.16 µM) was 67.1%, the viability, T/C (second compound 3.16 µM, first compound 10 µM) was 1.48% and the viability, T/C (second compound 10 µM, first compound 0.0316 µM) was 48.5%. It also gave a viability, T/C (second compound 10 µM, first compound 0.1 µM) of 42.5%, a viability, T/C (second compound 10 µM, first compound 0.316 µM) of 48.5% and a viability, T/C (second compound 10 µM, first compound 1 µM) of 55.3%. For the same compound, the viability, T/C (second compound 10 µM, first compound 3.16 µM) was 45.6% and the viability, T/C (second compound 10 µM, first compound 10 µM) was 0.6%.

In the case of `CCN(c1cc(-c2ccc(CN3CCOCC3)cc2)cc(C(=O)NCc2c(C)cc(C)[nH]c2=O)c1C)C1CCOCC1` + NC1CC1c1ccc(-c2cccc(O)c2)cc1, the pIC50 (second compound 0.1 µM) was 6.84, the pIC50 (second compound 0.316 µM) was 7.00 and the pIC50 (second compound 1 µM) was 7.00. It also gave a pIC50 (second compound 3.16 µM) of 7.04, a pIC50 (second compound 10 µM) of 7.88 and a viability, T/C (second compound 0.1 µM, first compound 0.00949 µM) of 89.6%. For the same compound, the viability, T/C (second compound 0.1 µM, first compound 0.03 µM) was 82%, the viability, T/C (second compound 0.1 µM, first compound 0.0949 µM) was 51.3% and the viability, T/C (second compound 0.1 µM, first compound 0.3 µM) was 40%. For the same compound, the viability, T/C (second compound 0.1 µM, first compound 0.949 µM) was 27.8%, the viability, T/C (second compound 0.1 µM, first compound 3 µM) was 17.8% and the viability, T/C (second compound 0.316 µM, first compound 0.00949 µM) was 73.1%. The viability, T/C (second compound 0.316 µM, first compound 0.03 µM) was 70.2%, the viability, T/C (second compound 0.316 µM, first compound 0.0949 µM) was 46.2% and the viability, T/C (second compound 0.316 µM, first compound 0.3 µM) was 36.4%. It also gave a viability, T/C (second compound 0.316 µM, first compound 0.949 µM) of 25.2%, a viability, T/C (second compound 0.316 µM, first compound 3 µM) of 16.6% and a viability, T/C (second compound 1 µM, first compound 0.00949 µM) of 68.2%. For the same compound, the viability, T/C (second compound 1 µM, first compound 0.03 µM) was 69.7%, the viability, T/C (second compound 1 µM, first compound 0.0949 µM) was 46.7% and the viability, T/C (second compound 1 µM, first compound 0.3 µM) was 35.1%. It also gave a viability, T/C (second compound 1 µM, first compound 0.949 µM) of 23.9%, a viability, T/C (second compound 1 µM, first compound 3 µM) of 17.1% and a viability, T/C (second compound 3.16 µM, first compound 0.00949 µM) of 72.5%. For the same compound, the viability, T/C (second compound 3.16 µM, first compound 0.03 µM) was 71.6%, the viability, T/C (second compound 3.16 µM, first compound 0.0949 µM) was 44.7% and the viability, T/C (second compound 3.16 µM, first compound 0.3 µM) was 34.3%. The viability, T/C (second compound 3.16 µM, first compound 0.949 µM) was 21.8%, the viability, T/C (second compound 3.16 µM, first compound 3 µM) was 16.6% and the viability, T/C (second compound 10 µM, first compound 0.00949 µM) was 52.6%. For the same compound, the viability, T/C (second compound 10 µM, first compound 0.03 µM) was 43.1%, the viability, T/C (second compound 10 µM, first compound 0.0949 µM) was 34.3% and the viability, T/C (second compound 10 µM, first compound 0.3 µM) was 24.6%. For the same compound, the viability, T/C (second compound 10 µM, first compound 0.949 µM) was 16.8% and the viability, T/C (second compound 10 µM, first compound 3 µM) was 12.2%.
